{
  "source": "PubChem BioAssay AID1963980",
  "about": "(Molecular Pharmacology Branch, DTP, NCI, 2024);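 further: spheroids exposed to agents for seven days before readout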",
  "test_system": "475296-252-R-J1-PDC spheroid viability",
  "test": "Anticancer human tumor 475296-252-R-J1-PDC patient-derived rectal carcinoma cell line growth inhibition [PI3K]",
  "conditions": "spheroids with HUVEC and MSC; for IC50: curve of first compound; for viability, T/C: stronger effect = lower value",
  "summary_of_the_method": "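We assembled tumor spheroids that included a stromal compartment of HUVEC and MSCs, then exposed them to targeted agents alone and together with PI3K pathway inhibitors. Concentration series descended by half-log from clinically achievable Cmax levels. Viability served as the endpoint.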",
  "data": [
    {"smiles": "Cn1cnc2c(F)c(Nc3ccc(Br)cc3Cl)c(C(=O)NOCCO)cc21", "note": "+ CC(Nc1ccc2c(c1)OCCn1cc(N3C(=O)OCC3C(F)F)nc1-2)C(N)=O", "values": [
      {"measurement": "IC50", "setting": "second compound 0.00316 µM", "result": "> 3", "unit": "µM"},
      {"measurement": "IC50", "setting": "second compound 0.01 µM", "result": "> 3", "unit": "µM"},
      {"measurement": "IC50", "setting": "second compound 0.0316 µM", "result": "> 3", "unit": "µM"},
      {"measurement": "IC50", "setting": "second compound 0.1 µM", "result": 1.21, "unit": "µM"},
      {"measurement": "IC50", "setting": "second compound 0.316 µM", "result": 0.415, "unit": "µM"},
      {"measurement": "IC50", "setting": "second compound 1 µM", "result": 0.142, "unit": "µM"},
      {"measurement": "viability, T/C", "setting": "second compound 0.00316 µM, first compound 0.00949 µM", "result": 96.4, "unit": "%"},
      {"measurement": "viability, T/C", "setting": "second compound 0.00316 µM, first compound 0.03 µM", "result": 93.1, "unit": "%"},
      {"measurement": "viability, T/C", "setting": "second compound 0.00316 µM, first compound 0.0949 µM", "result": 89, "unit": "%"},
      {"measurement": "viability, T/C", "setting": "second compound 0.00316 µM, first compound 0.3 µM", "result": 74.8, "unit": "%"},
      {"measurement": "viability, T/C", "setting": "second compound 0.00316 µM, first compound 0.949 µM", "result": 74.8, "unit": "%"},
      {"measurement": "viability, T/C", "setting": "second compound 0.00316 µM, first compound 3 µM", "result": 60.8, "unit": "%"},
      {"measurement": "viability, T/C", "setting": "second compound 0.01 µM, first compound 0.00949 µM", "result": 104, "unit": "%"},
      {"measurement": "viability, T/C", "setting": "second compound 0.01 µM, first compound 0.03 µM", "result": 90.9, "unit": "%"},
      {"measurement": "viability, T/C", "setting": "second compound 0.01 µM, first compound 0.0949 µM", "result": 90.4, "unit": "%"},
      {"measurement": "viability, T/C", "setting": "second compound 0.01 µM, first compound 0.3 µM", "result": 65.2, "unit": "%"},
      {"measurement": "viability, T/C", "setting": "second compound 0.01 µM, first compound 0.949 µM", "result": 72.8, "unit": "%"},
      {"measurement": "viability, T/C", "setting": "second compound 0.01 µM, first compound 3 µM", "result": 61.4, "unit": "%"},
      {"measurement": "viability, T/C", "setting": "second compound 0.0316 µM, first compound 0.00949 µM", "result": 95.4, "unit": "%"},
      {"measurement": "viability, T/C", "setting": "second compound 0.0316 µM, first compound 0.03 µM", "result": 96, "unit": "%"},
      {"measurement": "viability, T/C", "setting": "second compound 0.0316 µM, first compound 0.0949 µM", "result": 84.8, "unit": "%"},
      {"measurement": "viability, T/C", "setting": "second compound 0.0316 µM, first compound 0.3 µM", "result": 77.3, "unit": "%"},
      {"measurement": "viability, T/C", "setting": "second compound 0.0316 µM, first compound 0.949 µM", "result": 67.8, "unit": "%"},
      {"measurement": "viability, T/C", "setting": "second compound 0.0316 µM, first compound 3 µM", "result": 52.3, "unit": "%"},
      {"measurement": "viability, T/C", "setting": "second compound 0.1 µM, first compound 0.00949 µM", "result": 78.8, "unit": "%"},
      {"measurement": "viability, T/C", "setting": "second compound 0.1 µM, first compound 0.03 µM", "result": 82.9, "unit": "%"},
      {"measurement": "viability, T/C", "setting": "second compound 0.1 µM, first compound 0.0949 µM", "result": 71.5, "unit": "%"},
      {"measurement": "viability, T/C", "setting": "second compound 0.1 µM, first compound 0.3 µM", "result": 65, "unit": "%"},
      {"measurement": "viability, T/C", "setting": "second compound 0.1 µM, first compound 0.949 µM", "result": 53, "unit": "%"},
      {"measurement": "viability, T/C", "setting": "second compound 0.1 µM, first compound 3 µM", "result": 40.4, "unit": "%"},
      {"measurement": "viability, T/C", "setting": "second compound 0.316 µM, first compound 0.00949 µM", "result": 76.5, "unit": "%"},
      {"measurement": "viability, T/C", "setting": "second compound 0.316 µM, first compound 0.03 µM", "result": 89.5, "unit": "%"},
      {"measurement": "viability, T/C", "setting": "second compound 0.316 µM, first compound 0.0949 µM", "result": 66, "unit": "%"},
      {"measurement": "viability, T/C", "setting": "second compound 0.316 µM, first compound 0.3 µM", "result": 54.8, "unit": "%"},
      {"measurement": "viability, T/C", "setting": "second compound 0.316 µM, first compound 0.949 µM", "result": 38.7, "unit": "%"},
      {"measurement": "viability, T/C", "setting": "second compound 0.316 µM, first compound 3 µM", "result": 23.6, "unit": "%"},
      {"measurement": "viability, T/C", "setting": "second compound 1 µM, first compound 0.00949 µM", "result": 84.5, "unit": "%"},
      {"measurement": "viability, T/C", "setting": "second compound 1 µM, first compound 0.03 µM", "result": 70.2, "unit": "%"},
      {"measurement": "viability, T/C", "setting": "second compound 1 µM, first compound 0.0949 µM", "result": 57, "unit": "%"},
      {"measurement": "viability, T/C", "setting": "second compound 1 µM, first compound 0.3 µM", "result": 38.4, "unit": "%"},
      {"measurement": "viability, T/C", "setting": "second compound 1 µM, first compound 0.949 µM", "result": 25.4, "unit": "%"},
      {"measurement": "viability, T/C", "setting": "second compound 1 µM, first compound 3 µM", "result": 13.5, "unit": "%"}
    ]},
    {"smiles": "Cn1ncc(Cl)c1-c1cc(C(=O)NC(CN)Cc2cccc(F)c2)sc1Cl", "note": "(centres undefined) + CC(Nc1ncnc2nc[nH]c12)c1cc2cccc(Cl)c2c(=O)n1-c1ccccc1", "values": [
      {"measurement": "IC50", "setting": "second compound 0.0316 µM", "result": "> 10", "unit": "µM"},
      {"measurement": "IC50", "setting": "second compound 0.1 µM", "result": "> 10", "unit": "µM"},
      {"measurement": "IC50", "setting": "second compound 0.316 µM", "result": "> 10", "unit": "µM"},
      {"measurement": "IC50", "setting": "second compound 1 µM", "result": "> 10", "unit": "µM"},
      {"measurement": "IC50", "setting": "second compound 3.16 µM", "result": "> 10", "unit": "µM"},
      {"measurement": "IC50", "setting": "second compound 10 µM", "result": "> 10", "unit": "µM"},
      {"measurement": "viability, T/C", "setting": "second compound 0.0316 µM, first compound 0.0316 µM", "result": 101, "unit": "%"},
      {"measurement": "viability, T/C", "setting": "second compound 0.0316 µM, first compound 0.1 µM", "result": 83.3, "unit": "%"},
      {"measurement": "viability, T/C", "setting": "second compound 0.0316 µM, first compound 0.316 µM", "result": 60.1, "unit": "%"},
      {"measurement": "viability, T/C", "setting": "second compound 0.0316 µM, first compound 1 µM", "result": 71.5, "unit": "%"},
      {"measurement": "viability, T/C", "setting": "second compound 0.0316 µM, first compound 3.16 µM", "result": 71.7, "unit": "%"},
      {"measurement": "viability, T/C", "setting": "second compound 0.0316 µM, first compound 10 µM", "result": 61.5, "unit": "%"},
      {"measurement": "viability, T/C", "setting": "second compound 0.1 µM, first compound 0.0316 µM", "result": 95.7, "unit": "%"},
      {"measurement": "viability, T/C", "setting": "second compound 0.1 µM, first compound 0.1 µM", "result": 80, "unit": "%"},
      {"measurement": "viability, T/C", "setting": "second compound 0.1 µM, first compound 0.316 µM", "result": 64.9, "unit": "%"},
      {"measurement": "viability, T/C", "setting": "second compound 0.1 µM, first compound 1 µM", "result": 63.6, "unit": "%"},
      {"measurement": "viability, T/C", "setting": "second compound 0.1 µM, first compound 3.16 µM", "result": 70.2, "unit": "%"},
      {"measurement": "viability, T/C", "setting": "second compound 0.1 µM, first compound 10 µM", "result": 57, "unit": "%"},
      {"measurement": "viability, T/C", "setting": "second compound 0.316 µM, first compound 0.0316 µM", "result": 90.5, "unit": "%"},
      {"measurement": "viability, T/C", "setting": "second compound 0.316 µM, first compound 0.1 µM", "result": 77.6, "unit": "%"},
      {"measurement": "viability, T/C", "setting": "second compound 0.316 µM, first compound 0.316 µM", "result": 56.5, "unit": "%"},
      {"measurement": "viability, T/C", "setting": "second compound 0.316 µM, first compound 1 µM", "result": 65.4, "unit": "%"},
      {"measurement": "viability, T/C", "setting": "second compound 0.316 µM, first compound 3.16 µM", "result": 59.8, "unit": "%"},
      {"measurement": "viability, T/C", "setting": "second compound 0.316 µM, first compound 10 µM", "result": 57.6, "unit": "%"},
      {"measurement": "viability, T/C", "setting": "second compound 1 µM, first compound 0.0316 µM", "result": 87.5, "unit": "%"},
      {"measurement": "viability, T/C", "setting": "second compound 1 µM, first compound 0.1 µM", "result": 74.7, "unit": "%"},
      {"measurement": "viability, T/C", "setting": "second compound 1 µM, first compound 0.316 µM", "result": 58.2, "unit": "%"},
      {"measurement": "viability, T/C", "setting": "second compound 1 µM, first compound 1 µM", "result": 60.5, "unit": "%"},
      {"measurement": "viability, T/C", "setting": "second compound 1 µM, first compound 3.16 µM", "result": 55.6, "unit": "%"},
      {"measurement": "viability, T/C", "setting": "second compound 1 µM, first compound 10 µM", "result": 62.1, "unit": "%"},
      {"measurement": "viability, T/C", "setting": "second compound 3.16 µM, first compound 0.0316 µM", "result": 87, "unit": "%"},
      {"measurement": "viability, T/C", "setting": "second compound 3.16 µM, first compound 0.1 µM", "result": 80.4, "unit": "%"},
      {"measurement": "viability, T/C", "setting": "second compound 3.16 µM, first compound 0.316 µM", "result": 51.4, "unit": "%"},
      {"measurement": "viability, T/C", "setting": "second compound 3.16 µM, first compound 1 µM", "result": 50.9, "unit": "%"},
      {"measurement": "viability, T/C", "setting": "second compound 3.16 µM, first compound 3.16 µM", "result": 60.7, "unit": "%"},
      {"measurement": "viability, T/C", "setting": "second compound 3.16 µM, first compound 10 µM", "result": 52.1, "unit": "%"},
      {"measurement": "viability, T/C", "setting": "second compound 10 µM, first compound 0.0316 µM", "result": 92.3, "unit": "%"},
      {"measurement": "viability, T/C", "setting": "second compound 10 µM, first compound 0.1 µM", "result": 77, "unit": "%"},
      {"measurement": "viability, T/C", "setting": "second compound 10 µM, first compound 0.316 µM", "result": 60.5, "unit": "%"},
      {"measurement": "viability, T/C", "setting": "second compound 10 µM, first compound 1 µM", "result": 58.8, "unit": "%"},
      {"measurement": "viability, T/C", "setting": "second compound 10 µM, first compound 3.16 µM", "result": 62.8, "unit": "%"},
      {"measurement": "viability, T/C", "setting": "second compound 10 µM, first compound 10 µM", "result": 46.7, "unit": "%"}
    ]}
  ]
}
